IC50 data for 38 molecules are collected here from US7781591B2, “Substituted 3-cyanopyridines as protein kinase inhibitors” (Wyeth LLC, priority 2006, dated 2010).

The target in this assay is T1, human PKCθ full length enzyme (Homo sapiens, UniProt Q04759).
T1 construct: human PKCθ full length enzyme (Panvera Cat# P2996); purchased Panvera P2996
T1 sequence (Q04759 whole entry): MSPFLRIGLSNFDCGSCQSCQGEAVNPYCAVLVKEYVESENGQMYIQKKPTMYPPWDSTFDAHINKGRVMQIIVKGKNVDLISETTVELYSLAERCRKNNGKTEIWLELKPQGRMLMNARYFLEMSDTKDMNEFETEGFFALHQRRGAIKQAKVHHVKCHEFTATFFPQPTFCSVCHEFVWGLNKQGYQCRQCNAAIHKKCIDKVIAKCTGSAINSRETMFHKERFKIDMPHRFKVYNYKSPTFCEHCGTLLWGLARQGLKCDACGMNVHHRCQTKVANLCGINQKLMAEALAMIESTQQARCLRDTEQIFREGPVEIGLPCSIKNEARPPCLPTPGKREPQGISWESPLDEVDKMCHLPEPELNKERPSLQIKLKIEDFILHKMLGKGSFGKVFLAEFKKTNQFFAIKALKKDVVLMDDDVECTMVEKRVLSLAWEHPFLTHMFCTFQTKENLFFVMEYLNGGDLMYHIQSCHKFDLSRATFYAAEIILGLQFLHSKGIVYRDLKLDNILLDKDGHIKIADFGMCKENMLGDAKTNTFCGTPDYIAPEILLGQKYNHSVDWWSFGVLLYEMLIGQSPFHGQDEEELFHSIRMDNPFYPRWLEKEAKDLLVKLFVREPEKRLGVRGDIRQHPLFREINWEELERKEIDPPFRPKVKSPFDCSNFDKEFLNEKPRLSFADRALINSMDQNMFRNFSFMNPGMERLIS
Briefly: PKCθ IMAP assay (fluorescence polarization). Conditions: human PKCθ full length enzyme, IMAP; average value; read-out: IC50 PKCθ IMAP. The class given is biochemical. (In general: In fluorescence polarisation assays a small probe gives low polarisation when free and higher when bound to something large.)
As to `Cc1c(Nc2c(C#N)cncc2-c2cc3cc(CNCCN4CCCC4)ccc3o2)ccc2[nH]ccc12` [Compound 390, 4-[(4-methyl-1H-indol-5-yl)amino]-5-(5-{[(2-pyrrolidin-1-ylethyl)amino]methyl}-1-benzofuran-2-yl)nicotinonitrile], the IC50 was 1 nM.

As for `N#Cc1cncc(-c2cc3cc(CNCc4ccccc4)ccc3s2)c1Nc1cccc2[nH]ccc12` [Compound 286, 5-{5-[(benzylamino)methyl]-1-benzothien-2-yl}-4-(1H-indol-4-ylamino)nicotinonitrile], the IC50 was found to be 1 nM.

In the case of `COc1ccc(-c2cncc(C#N)c2Nc2ccc3c(c2)OCO3)cc1OC` [Compound 111, 4-(1,3-benzodioxol-5-ylamino)-5-(3,4-dimethoxyphenyl)nicotinonitrile], the IC50 stood at 580 nM.

As to `N#Cc1cncc(-c2cccc(-c3ccc(C(=O)NC4CCCC4)cc3)c2)c1Nc1ccc2[nH]ccc2c1` [Compound 123, 3′-[5-cyano-4-(1H-indol-5-ylamino)pyridin-3-yl]-N-cyclopentylbiphenyl-4-carboxamide], the IC50 is 180 nM.

As for `N#Cc1cncc(-c2cccc(-c3ccc(C(=O)NCCCCO)cc3)c2)c1Nc1ccc2[nH]ccc2c1` [Compound 209, 3′-[5-cyano-4-(1H-indol-5-ylamino)pyridin-3-yl]-N-(4-hydroxybutyl)biphenyl-4-carboxamide], the concentration for half-maximal inhibition (IC50) stood at 280 nM.

As to `Cc1c(Nc2c(C#N)cncc2-c2ccc(OCCN3CCCC3)cc2)ccc2[nH]ccc12` [Compound 418, 4-[(4-methyl-1H-indol-5-yl)amino]-5-[4-(2-pyrrolidin-1-ylethoxy)phenyl]nicotinonitrile], the IC50 came to 4 nM.

On to `Cc1c(Nc2c(C#N)cncc2-c2cccc3cccnc23)ccc2[nH]ccc12` [Compound 590, 4-[(4-methyl-1H-indol-5-yl)amino]-5-quinolin-8-ylnicotinonitrile], for which the IC50 is 972 nM.

For the molecule `Cc1c(Nc2c(C#N)cncc2-c2ccc(CN3CCN(C)CC3)cc2)ccc2[nH]ccc12` [Compound 449, 4-[(4-methyl-1H-indol-5-yl)amino]-5-{4-[(4-methylpiperazin-1-yl)methyl]phenyl}nicotinonitrile], the IC50 is 5 nM.

In the case of `N#Cc1cncc(-c2cc3cc(C=O)ccc3s2)c1Nc1cccc2[nH]ccc12` [Compound 223, 5-(5-formyl-1-benzothien-2-yl)-4-(1H-indol-4-ylamino)nicotinonitrile], the IC50 was 6 nM.

Regarding `Cc1c(Nc2c(C#N)cncc2-c2ccc(CNCc3ccccc3)o2)ccc2[nH]ccc12` [Compound 408, 5-{5-[(benzylamino)methyl]-2-furyl}-4-[(4-methyl-1H-indol-5-yl)amino]nicotinonitrile], the IC50 turned out to be 11 nM.

With `N#Cc1cncc(-c2cccc(-c3ccc(C(=O)NC4CC4)cc3)c2)c1Nc1ccc2[nH]ccc2c1` [Compound 201, 3′-[5-cyano-4-(1H-indol-5-ylamino)pyridin-3-yl]-N-cyclopropylbiphenyl-4-carboxamide], the IC50 is 300 nM.

For `Cc1c(Nc2c(C#N)cncc2-c2ccc(NC(=O)NC3CC3)cc2)ccc2[nH]ccc12` [Compound 566, 1-(4-{5-cyano-4-[(4-methyl-1H-indol-5-yl)amino]pyridin-3-yl}phenyl)-3-cyclopropylurea], the half-maximal inhibitory concentration (IC50) was 23 nM.

For `N#Cc1cncc(-c2cc3cc(CNCCCCO)ccc3s2)c1Nc1cccc2[nH]ccc12` [Compound 277, 5-(5-{[(4-hydroxybutyl)amino]methyl}-1-benzothien-2-yl)-4-(1H-indol-4-ylamino)nicotinonitrile], the IC50 is 3 nM.

For the molecule `Cc1c(Nc2c(C#N)cncc2-c2ccsc2)ccc2[nH]ccc12` [Compound 562, 4-[(4-methyl-1H-indol-5-yl)amino]-5-(3-thienyl)nicotinonitrile], the IC50 amounted to 12 nM.

With `CN(C)c1ccc(-c2cncc(C#N)c2Nc2ccc3[nH]ncc3c2)cc1` [Compound 292, 5-[4-(dimethylamino)phenyl]-4-(1H-indazol-5-ylamino)nicotinonitrile], the IC50 was 13200 nM.

As to `COc1cc(-c2cncc(C#N)c2Nc2ccc3[nH]ccc3c2C)ccc1OCCN(C)C` [Compound 345, 5-{4-[2-(dimethylamino)ethoxy]-3-methoxyphenyl}-4-[(4-methyl-1H-indol-5-yl)amino]nicotinonitrile], the IC50 turned out to be 7 nM.

With `Cc1c(Nc2c(C#N)cncc2-c2cc3ccccc3o2)ccc2[nH]ccc12` [Compound 222, 5-(1-benzofuran-2-yl)-4-[(4-methyl-1H-indol-5-yl)amino]nicotinonitrile], the IC50 was 1 nM.

Take `Cc1c(Nc2c(C#N)cncc2-c2ccc(OCCN(C)C)cc2Cl)ccc2[nH]ccc12` [Compound 363, 5-{2-chloro-4-[2-(dimethylamino)ethoxy]phenyl}-4-[(4-methyl-1H-indol-5-yl)amino]nicotinonitrile]: the IC50 was 20 nM.

As for `Cc1c(Nc2c(C#N)cncc2-c2cc(C=O)co2)ccc2[nH]ccc12` [Compound 517, 5-(4-formyl-2-furyl)-4-[(4-methyl-1H-indol-5-yl)amino]nicotinonitrile], the IC50 is 8 nM.

Regarding `N#Cc1cncc(-c2cc3cc(CNCc4ccccn4)ccc3s2)c1Nc1cccc2[nH]ccc12` [Compound 288, 4-(1H-indol-4-ylamino)-5-(5-{[(pyridin-2-ylmethyl)amino]methyl}-1-benzothien-2-yl)nicotinonitrile], the IC50 stood at 3 nM.

Take `Cc1c(Nc2c(C#N)cncc2-c2cccc(-c3ccc(C=O)s3)c2)ccc2[nH]ccc12` [Compound 306, 5-[3-(5-formyl-2-thienyl)phenyl]-4-[(4-methyl-1H-indol-5-yl)amino]nicotinonitrile]: the IC50 came to 60 nM.

Turning to “5-(2,4-dimethoxyphenyl)-4-(1H-indol-4-ylamino)nicotinonitrile [Compound 337]”, the IC50 came out at 100 nM.

Consider `Cc1c(Nc2c(C#N)cncc2-c2ccc(OCCNCC3CCN(C)CC3)cc2)ccc2[nH]ccc12` [Compound 421, 4-[(4-methyl-1H-indol-5-yl)amino]-5-[4-(2-{[(1-methylpiperidin-4-yl)methyl]amino}ethoxy)phenyl]nicotinonitrile], for which the IC50 is 3 nM.

As for `Cc1c(Nc2c(C#N)cncc2-c2cn[nH]c2)ccc2[nH]ccc12` [Compound 584, 4-[(4-methyl-1H-indol-5-yl)amino]-5-(1H-pyrazol-4-yl)nicotinonitrile], the IC50 was 43 nM.

On to `Cc1c(Nc2c(C#N)cncc2-c2cc3cc(CNCCO)ccc3o2)ccc2[nH]ccc12` [Compound 383, 5-(5-{[(2-hydroxyethyl)amino]methyl}-1-benzofuran-2-yl)-4-[(4-methyl-1H-indol-5-yl)amino]nicotinonitrile], for which the IC50 was 2 nM.

For `Cc1cc2[nH]ccc2cc1Nc1c(C#N)cncc1-c1cc2cc(CN3CCN(C)CC3)ccc2o1` [Compound 497, 4-[(6-methyl-1H-indol-5-yl)amino]-5-{5-[(4-methylpiperazin-1-yl)methyl]-1-benzofuran-2-yl}nicotinonitrile], the IC50 is 7 nM.

As for `N#Cc1cncc(-c2ccc(OC[C@H](N)Cc3ccccc3)cc2)c1Nc1cccc2[nH]ccc12` [Compound 458, 5-(4-{[(2R)-2-amino-3-phenylpropyl]oxy}phenyl)-4-(1H-indol-4-ylamino)nicotinonitrile], the IC50 was determined as 14 nM.

On to `N#Cc1cncc(-c2ccc(O)cc2)c1Nc1cccc2[nH]ccc12` [Compound 225, 5-(4-hydroxyphenyl)-4-(1H-indol-4-ylamino)nicotinonitrile], for which the IC50 is 5 nM.

On to `N#Cc1cncc(-c2ccsc2)c1Nc1ccc2[nH]ccc2c1` [Compound 258, 4-(1H-indol-5-ylamino)-5-(3-thienyl)nicotinonitrile], for which the IC50 was 100 nM.

Consider `Cc1c(Nc2c(C#N)cncc2-c2cccc(N)c2)ccc2[nH]ccc12` [Compound 572, 5-(3-aminophenyl)-4-[(4-methyl-1H-indol-5-yl)amino]nicotinonitrile], for which the IC50 came out at 50 nM.

As for `N#Cc1cncc(-c2cccc(OCCNCCN3CCCC3)c2)c1Nc1ccc2[nH]ccc2c1` [Compound 177, 4-(1H-indol-5-ylamino)-5-(3-{2-[(2-pyrrolidin-1-ylethyl)amino]ethoxy}phenyl)nicotinonitrile], the IC50 worked out at 20 nM.

Consider `Cc1c(Nc2c(C#N)cncc2-c2ccc(NC(=O)OCc3ccccc3)c(F)c2)ccc2[nH]ccc12` [Compound 527, benzyl (4-{5-cyano-4-[(4-methyl-1H-indol-5-yl)amino]pyridin-3-yl}-2-fluorophenyl)carbamate], for which the IC50 was 27 nM.

Consider `COc1ccc(-c2cncc(C#N)c2Nc2ccc3[nH]ccc3c2)cc1OCCNCc1ccco1` [Compound 245, 5-(3-{2-[(2-furylmethyl)amino]ethoxy}-4-methoxyphenyl)-4-(1H-indol-5-ylamino)nicotinonitrile], for which the IC50 is 270 nM.

Take `N#Cc1cncc(-c2ccc(NCCN3CCOCC3)nc2)c1Nc1cccc2[nH]ccc12` [Compound 361, 4-(1H-indol-4-ylamino)-6′-[(2-morpholin-4-ylethyl)amino]-3,3′-bipyridine-5-carbonitrile]: the IC50 stood at 40 nM.

For `N#Cc1cncc(-c2cccc(-c3ccc(C(=O)NCCCO)cc3)c2)c1Nc1ccc2[nH]ccc2c1` [Compound 210, 3′-[5-cyano-4-(1H-indol-5-ylamino)pyridin-3-yl]-N-(3-hydroxypropyl)biphenyl-4-carboxamide], the IC50 is 2580 nM.

`COCCOc1ccc(-c2cncc(C#N)c2Nc2ccc3[nH]ccc3c2C)cc1` [Compound 482, 5-[4-(2-methoxyethoxy)phenyl]-4-[(4-methyl-1H-indol-5-yl)amino]nicotinonitrile]: the IC50 was determined as 11 nM.

Regarding `Cc1c(Nc2c(C#N)cncc2-c2ccc(OCCN3CCC(CO)CC3)cc2)ccc2[nH]ccc12` [Compound 422, 5-(4-{2-[4-(hydroxymethyl)piperidin-1-yl]ethoxy}phenyl)-4-[(4-methyl-1H-indol-5-yl)amino]nicotinonitrile], the concentration for half-maximal inhibition (IC50) came to 8 nM.

As to `CS(=O)(=O)c1cccc(-c2cncc(C#N)c2Nc2cccc3[nH]ccc23)c1` [Compound 255, 4-(1H-indol-4-ylamino)-5-[3-(methylsulfonyl)phenyl]nicotinonitrile], the IC50 was found to be 80 nM.

Usually IC50 stands for the midpoint of a concentration-inhibition curve.
